{"source": "patent US6773705B1", "about": "“Methods for diagnosing and treating autoimmune disease” (General Hospital Corporation, priority 1998, dated 2004)", "key": {"[1]": {"molecular_target": "T1, NFκBp65-associated protein kinase (cytosolic)", "T1 construct": "other: cytosolic; GST-C", "assay": "In vitro kinase assay, GST-CTD phosphorylation by GST-NFκBp65-precipitated complexes from Molt-4 cytosolic extract", "assay_type": "biochemical, human", "conditions": "GST-CTD substrate, FIG. 1C", "experimental": "(§2) GST-NFκp65 and GST-CTD were expressed in BL21 pLysS E. Coli cells and purified by selective absorption to glutathione sepharose beads. GST-NFκBp65 was incubated with Molt-4 cytosolic and nuclear extracts, prepared as described above. Reaction mixtures were washed in PBS. The precipitated complexes were then incubated with GST-CTD of RNA polymerase II large subunit in kinase buffer containing γ-[^32P]ATP as previously described (Hayashi et al., 1993, J. Biol. Chem., 268: 26790-26795; Faustman et al., 1989, Diabetes, 38: 1462-1468). One-fortieth of the input (I) and supernatant (S) fractions and 1/40 of the last wash (W) and pellet (P) fractions were used for in vitro kinase reaction. Protein complexes were collected by brief centrifugation, washed and then incubated with GST-CTD substrates in kinase buffer containing y-^32P ATP. The products of the in vitro kinase reactions were then analyzed on SDS-PAGE. […] To determine whether the kinase activity of NFκBp65-associated protein kinase were sensitive to DRB, the ability of DRB to inhibit the kinase activity of NFκBp65 association protein kinase was tested by examining the phosphorylation of CTD in the presence of different concentrations of DRB. […] Quantitation of the gel shown in FIG. 1C with an image analyzer (a BAS 3000 phosphorimager) was plotted on a graph. […]"}, "[2]": {"molecular_target": "NFκBp65-associated protein kinase (nuclear)", "assay_type": "biochemical, human", "conditions": "GST-CTD substrate, FIG. 1C", "experimental": "as §2"}, "20S proteasome [3]": {"tested_on": "20S proteasome", "assay": "In vitro p105/p60Tth processing assay with mouse spleen cytosolic extracts", "assay_type": "biochemical", "conditions": "MG115 50 μM, FIG. 12A, 12B right", "method": "To investigate whether the altered abundance of p50 in NOD mouse spleen cells could be attributable to defective processing of p105 by the proteasome, the processing of p105 by cytosolic extracts of NOD mouse spleen cells was examined using recombinant p105 or the truncated version p60Tth as substrates. The in vitro p105 processing assay reaction was performed as previously described (Fan and Maniatis, 1991, supra). In brief, p105 and p60Tth expression constructs were subjected to in vitro transcription and translation in a wheat germ extract system (Promega) in the presence of [^35S]methionine. The ^35S-labeled p105 and p60th proteins were immunoprecipitated with polyclonal antibodies to p50 and purified for use as substrates. Each substrate protein was incubated for 90 minutes at 30° C. with spleen cytosolic extract (20 or40 μg of protein) in a final volume of 25 μl in the absence or presence of 10 mM ATP (Palombella et al., 1994, supra). The proteasome inhibitor MG115 was also added to the reaction mixture where indicated (FIG. 12). The processed proteins were separated by SDS-polyacrylamide gel electrophoresis (PAGE) on a 10% gel and visualized by autoradiography. […] When p60Tth was incubated with cytosolic extracts of BALB/c cells in the presence of […], mature p50 was generated (FIG. 12A, center). […]"}, "20S proteasome [4]": {"tested_on": "20S proteasome", "conditions": "MG115 50 μM; Palombella et al., 1994; cited from earlier work"}, "proteasome": {"tested_on": "proteasome", "assay": "In vitro p105 processing assay with cytoplasmic extracts of T1, T2, Molt-4 and Jurkat cells", "assay_type": "biochemical", "conditions": "50 μg MG115; cell line cytoplasmic extracts; FIG. 12G", "method": "The labeled p105 was incubated with the cytosolic extracts of these cell lines (20 or 40 μg of protein at left and center) and the reaction mixtures were incubated with (center; FIGS. 12E, F and G) or without (upper; FIGS. 12E, F and G) 10 mM ATP in a wheat germ extract system (Promega) as above. Incubations were also performed in the absence (−) or presence (+) of 50 μg MG115 (lower; FIGS. 12E, F and G). Lane 1 in all gels presented in FIGS. 12E, F and G corresponds to reaction mixtures without substrate. Incubations were performed at 30° C. for 90 minutes, after which the reaction mixtures were analyzed by SDS-PAGE and autoradiography. […] When p105 was incubated with the cytoplasmic extracts of T1 cells, Molt-4 cells and Jurkat cells in the presence of 10 mM ATP, the mature p50 was detected (FIG. 12F); however, the p50 was not generated by incubation of p105 with the cytoplasmic extracts prepared from T2 cells in the presence of 10 mM ATP (FIG. 12F, lanes 4 and 5). To verify that the maturation processing of p50 in the in vitro reaction was mediated by the proteasome processing pathway, the effect of MG115 on proteasome function was examined."}, "spleen cells": {"tested_on": "spleen cells", "assay": "TNF-α cytotoxicity of spleen cells (viable cell count, DNA fragmentation)", "assay_type": "cell-based, mouse", "method": "One critical function of NFκB is to provide protection to cells from the effects of exogenous TNF-α. […] Spleen cells were cultured for 24 hours after exposure to various concentrations (2, 5, 10 or 20 ng/ml) of TNF-α, as indicated on the X axis of the figure. Viable cells remaining after TNF-α treatment are shown as a percentage of viable control (untreated) cells. Standard deviations were calculated from four independent readings within a single experiment. The survival over time of cells treated with TNF-α is charted in FIG. 13B. Spleen cells were treated with TNF-α (10 ng/ml), and viable cells were counted at various times following treatment as indicated on the X axis of the figure.\n(§1) DNA fragmentation was evaluated and detected by agarose gel electrophoresis after spleen cells were cultured in 10 ng/ml TNF-α for 24 hours. […] Embryonic fibroblasts prepared from BALB/c and NOD mice were cultured DMEM containing 10% fetal bovine serum and then incubated with various concentrations of TNF-α for 24 hours (FIG. 13D, top) or with TNF-α at 10 ng/ml for the indicated times (FIG. 13D, bottom). Cell viability was assessed by trypan blue exclusion. Data are means±SD of four replicates from a representative experiment, and are expressed as a percentage of the survival value for the corresponding cells not exposed to TNF-α."}, "IκBα": {"tested_on": "IκBα", "assay": "Immunoblot of cytosolic IκBα in TNF-α-treated spleen lymphocytes", "assay_type": "cell-based, mouse", "conditions": "TNF-α 10 ng/ml, FIG. 10B", "method": "The basal expression of NF-κB subunits, IκBa and cyclin-dependent kinases was examined by immunoblot analysis of cytosolic and nuclear extracts of male (M) or female (F) BALB/c and NOD mouse spleen cells (FIG. 10). In these experiments, extracts of spleen cells were subjected to SDS-PAGE on a 12.5% gel under non-reducing conditions. The separated proteins were transferred electrophoretically to a polyvinylidene difluoride (PVDF) membrane which was then incubated for 2 hours at room temperature with TBS-T (20 mM Tris-HCl, pH 7.6; 137 mM NaCl; 0.05% volume/volume Tween 20) containing 8% (weight/volume) bovine serum albumin. The membrane was then incubated for 12 h at 4° C. with TBS-T containing the appropriate polyclonal antibodies, washed 4×5 minutes with TBS-T at room temperature, incubated for 2 hours at room temperature with TBS-T containing alkaline phosphatase-conjugated secondary antibodies, washed five times with TBS-T and subjected to the alkaline phosphatase color reaction. […]\nTo assess the dynamics of IκBα protein expression occurring during lymphocyte activation by TNF-α treatment, subcellular fractions from lymphocytes derived from BALB/c and NOD spleen were treated with 10 ng/ml TNF-α. […] IκBα protein was readily detected in the cytosolic extracts from both unstimulated lymphocytes, BALB/c and NOD. […]"}, "NF-κB [5]": {"tested_on": "NF-κB", "assay": "EMSA of NF-κB DNA-binding activity in nuclear extracts of TNF-α-treated spleen cells", "conditions": "NOD mouse spleen cells (male and female); TNF-α 10 ng/ml, 4 hours; FIG. 8A", "experimental": "In order to assess the influence of TNF-α on NFκB in an in vitro system, a DNA/protein binding assay was undertaken. Nuclear extracts were prepared from BALB/C and NOD mice by methods described above. The binding activities were examined by EMSA with ^32P end-labeled oligonucleotide containing an NFκB recognition sequence. Spleen cells were stimulated with TNF-α treatment (10 ng/ml;+) or without TNF-α treatment (−) and nuclear extracts from the treated cells were prepared 4 hours later. Nuclear extract prepared from spleen cells of BALB/C (lanes 2-5; FIG. 8A) and NOD (lanes 6-9; FIG. 8A) mice and Molt-4 cells (lanes 10 and 11; FIG. 8A) were incubated with DNA probe as follows:\nDouble-stranded κB wt, κB mut or IL-R2α κB oligonucleotides were end-labeled using [α-^32P]dCTP and Klenow polymerase. Binding reactions of the DNA probe with nuclear extracts were performed at 37° C. for minutes in a total volume of 10 μl of buffer containing 10 mM Hepes (H 7.9), 50 mM KCl, 5 mM Tris-HCl (pH 7.0), 1 mM DTT, 15 mM EDTA, 10% (v/v) glycerol, 1.0 μg of poly (dI.dC), and 4 ng of the labeled probe. The DNA-protein complexes were resolved on nondenaturing 8% polyacrylamide gels. Electrophoresis was performed with 0.5×TBE buffer (4.5 mM Tris-HCl, 4.5 mM boric acid, 0.1 mM EDTA) at 4° C. A negative binding control, to which no nuclear extract was added, was run in lane 1. […]"}, "[6]": {"tested_on": "mouse embryonic fibroblasts (MEF)", "assay": "TNF-α cytotoxicity of embryonic fibroblasts (trypan blue exclusion)", "assay_type": "cell-based", "conditions": "NOD MEF; various TNF-α concentrations 24 hours or 10 ng/ml over time; FIG. 13D", "method": "as §1"}, "NF-κB [7]": {"tested_on": "NF-κB", "assay": "EMSA of nuclear NF-κB DNA-binding activity in TNF-α-treated cell lines", "assay_type": "cell-based", "conditions": "TNF-α 10 ng/ml, 4 h, FIG. 11A", "method": "Furthermore, in the […] cell line, in which Lmp2 and Lmp7 genes have been deleted, NF-κB is not activated in response to TNF-α. The effect of TNF-α treatment on the DNA-binding activity of nuclear NF-κB was examined (FIG. 11). EMSA was performed such that cell extracts from mutant T2 cells compared to those of control T1 cells, Molt-4 cells and Jurkat cells after stimulation for 4 h in the absence (−) or presence (+) of 10 ng/ml TNF-α.\n-unlabeled oligonucleotide (κB1). Double-stranded oligodeoxynucleotides were synthesized on a DNA synthesizer by the phosphoramidite method and purified on an OPC cartridge. […] The DNA-protein complexes were resolved by electrophoresis on nondenaturing 8% polyacrylamide gels with 0.5×TBE (Tris-borate-EDTA) buffer at 4° C. For competition experiments, nuclear extracts was incubated for […] at 4° C. with a 100-fold molar excess of unlabeled κB oligonucleotide before addition of the radioactive probe. Cytosolic extracts were treated with 1.2% NP-40 and 0.8% deoxycholate to dissociate IκB from NF-κB before incubation with 3^2P-labeled probe. For supershift assays, nuclear extracts were incubated with specific antibodies in 1 hour at 4° C. before addition of DNA probes. Lanes 1 correspondes to negative controls in which nuclear extract was not added."}}, "note": "Square brackets hold non-standard residues; d marks the D form. Peptide text beside a SMILES is read from it. * marks the point of attachment. Nva = CCC[C@H](N)C(=O)O; Cbz = O=C(OCc1ccccc1)*", "data": [{"compound": "OC[C@H]1O[C@@H](n2cnc3cc(Cl)c(Cl)cc32)[C@H](O)[C@@H]1O", "note": "[DRB, 5,6-dichloro-1-β-D-ribofuranosylbenzimidazole]", "values": [{"measurement": "concentration required for 50% inhibition of the activity of NFκBp65-associated protein kinase", "setting": "[1]", "value": 10, "unit": "µM"}, {"measurement": "concentration required for 50% inhibition of the activity of NFκBp65-associated protein kinase", "setting": "[2]", "value": 1, "unit": "µM"}]}, {"compound": "CCC[C@@H](C=O)NC(=O)[C@H](CC(C)C)NC(=O)[C@H](CC(C)C)NC(=O)OCc1ccccc1", "note": "[MG115] (Cbz-Leu-Leu-[Nva]-aldehyde)", "values": [{"measurement": "processing of p105 and p60Tth", "setting": "20S proteasome [3]", "value": "completely inhibited"}, {"measurement": "processing of p105", "setting": "20S proteasome [4]", "value": "prevent the processing of p105"}, {"measurement": "p105 processing to p50", "setting": "proteasome", "value": "clearly resulted in defective p105 processing"}]}, {"compound": "TNF-α", "values": [{"measurement": "DNA fragmentation by agarose gel electrophoresis", "setting": "spleen cells; NOD but not BALB/c spleen cells, TNF-α 10 ng/ml, 24 hours, FIG. 13C", "value": "resulted in apoptosis"}, {"measurement": "toxicity, cell survival", "setting": "spleen cells; NOD spleen cells, TNF-α 2-20 ng/ml, 24 hours, or 10 ng/ml over time, FIG. 13A, 13B", "value": "toxic"}, {"measurement": "time to disappearance of cytosolic IκBα", "setting": "IκBα; BALB/c lymphocytes", "value": "≤ 40", "unit": "min"}, {"measurement": "cytosolic IκBα during TNF-α treatment", "setting": "IκBα; NOD lymphocytes", "value": "clearly detected after 40 minutes of stimulation and then stably expressed"}, {"measurement": "NF-κB activation", "setting": "NF-κB [5]", "value": "only slightly induced"}, {"measurement": "cellular toxicity", "setting": "[6]", "value": "no cellular toxicity"}, {"measurement": "expression of the active nuclear form of NF-κB on EMSA", "setting": "NF-κB [7]; T1, Molt-4 and Jurkat cells", "value": "markedly detected"}, {"measurement": "NF-κB activity", "setting": "NF-κB [7]; T2 cells (Lmp2, Lmp7 deleted)", "value": "not induced"}]}]}
